# Experimental data as given in US20230374177A1, “CYTOSOLIC MICROPARTICLES, PHAGOCYTIC CELLS COMPRISING THE SAME, AND METHODS FOR TREATING DISEASE COMPRISING THE SAME” (Florida State University Research Foundation, Inc., priority 2022, published 2023).
# Tested on: RAW264.7 macrophages
# Test: Effects of factors on phagosomal rupture at 22° C.
# Format: cell-based
# Conditions: 22° C. cold shock; chloroquine 100 μM 30 min, tetrandrine 5 μM 30 min, colchicine 5 μM 3 h, LLOMe 1 mM 30 min, hypotonic shock 0.6×PBS
# Method: Incubation of macrophages with microparticles. […] A prewarmed suspension of macrophages in the complete medium (3.5×10^5 cells/mL, 1 mL, 37° C.) supplemented with LPS (1 μg/mL) was added into a chamber and incubated (5% CO2, 37° C.) for the specified period.
# Control. […] After 3 h, the complete medium was replaced with PBS (1 mL, 22° C.) and maintained for 2 min before being imaged.
# Hypotonic shock. 0.6×PBS was prepared by mixing PBS with H2O (volume ratio=6:4). […] After 3 h, the complete medium was replaced with the 0.6×PBS (1 mL, 22° C.) and maintained for 2 min before being imaged.
# Chloroquine. […] After 2.5 h, chloroquine (10 mM in DMEM) was added to the culture to reach 100 μM and further incubated (5% CO2, 37° C.) for 30 min. The complete medium was replaced with PBS (1 mL, 22° C.) and maintained for 2 min before being imaged.
# Tetrandrine. […] After 2.5 h, tetrandrine (5 mM in DMSO) was added to the culture to reach 5 μM and further incubated (5% CO2, 37° C.) for 30 min. The complete medium was replaced with PBS (1 mL, 22° C.) and maintained for 2 min before being imaged.
# Colchicine. […] After 3 h, colchicine (2.5 mM in DMEM) was added to the culture at 5 μM and further incubated (5% CO2, 37° C.) for 3 h. The complete medium was replaced with PBS (1 mL, 22° C.) and maintained for 2 min before being imaged.
# LLOMe. […] After 2.5 h, LLOMe (10 mM in DMEM) was added to the culture at 1 mM and further incubated (5% CO2, 37° C.) for 30 min. The complete medium was replaced with PBS (1 mL, 22° C.) and maintained for 2 min before being imaged.
# For each factor, an experiment was conducted to study its effect. […] Exposure of the macrophages to each factor was conducted either during or before the cold shock.
row,Compound,effect on percentage of phagosomal rupture at 22° C. compared to the control
1,CCN(CC)CCCC(C)Nc1ccnc2cc(Cl)ccc12 (stereo not drawn) [Chloroquine],did not induce a significant effect
2,COc1cc2c(c(OC)c1OC)-c1ccc(OC)c(=O)cc1[C@@H](NC(C)=O)CC2 [Colchicine],insignificant
3,"COC(=O)[C@H](CC(C)C)NC(=O)[C@@H](N)CC(C)C.Cl [LLOMe, L-Leucyl-L-leucine methyl ester hydrochloride]",significantly increased
